The values below come from ChEMBL document CHEMBL1126352, “Novel stereoselective calcium channel ligands of the diphenylalkylamine-type” (Bioorg Med Chem Lett, 1992).

Each structure is given as a SMILES string.

For this experiment, the target named is Voltage-gated L-type calcium channel (Rattus norvegicus, UniProt P22002+Q02485+P27732). The experiment can be described thus: Inhibition of [3H]nitrendipine binding to calcium channel of rat brain membranes. Format: cell membranes, Membrane.
As to `CC(C)(C)c1ccc(CCCCN2CCC(C(O)(c3ccccc3)c3ccc(Cl)cc3)CC2)cc1` (racemic), the Kd was determined as 1.15e-7 M l-1.

Regarding `CC(C)(C)c1ccc(CCCCN2CCC(C(O)(c3ccccc3)c3ccc(Cl)cc3)CC2)cc1` (stereo in doubt), the Kd was 9.36e-8 M l-1.

On to `CC(Cc1ccccc1)NCCC(c1ccccc1)c1ccccc1` (stereo not drawn) [PRENYLAMINE], for which the Kd was found to be 2.09e-7 M l-1.
